Each structure is given as a SMILES string. Activity calls are given as the source filed them. The rule behind the calls is not given here.

One experiment deals with Prostaglandin E2 receptor EP2 subtype (Homo sapiens) (UniProt P43116). Nature of the experiment: compounds shifting PGE2 potency at EP2 – cell-based, human EP2, PGE2 EC50 shift, dose response (AID 1421). The settings on record: EP2-expressing cells, PGE2 EC50 shift by compound.
Chain of Prostaglandin E2 receptor EP2 subtype (Homo sapiens) (P43116 whole entry, looked up): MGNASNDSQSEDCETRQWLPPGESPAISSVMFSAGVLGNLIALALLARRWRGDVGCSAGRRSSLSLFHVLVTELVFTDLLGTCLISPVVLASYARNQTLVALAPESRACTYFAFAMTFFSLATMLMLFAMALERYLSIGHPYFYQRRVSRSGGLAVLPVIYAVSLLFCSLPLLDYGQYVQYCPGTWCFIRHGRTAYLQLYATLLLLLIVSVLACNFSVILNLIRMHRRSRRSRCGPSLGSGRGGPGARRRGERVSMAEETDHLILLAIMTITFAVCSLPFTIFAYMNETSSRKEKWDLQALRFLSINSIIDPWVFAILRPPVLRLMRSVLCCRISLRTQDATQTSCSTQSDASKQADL
In the case of `CCOC(=O)C1=C(CN2CCc3ccccc32)NC(=O)NC1c1ccc(Cl)cc1` (configuration not stated), the outcome was active.
For `CCOC(=O)c1cc(CC)sc1NC(=O)c1cc(OC)c(OC)c(OC)c1`, the result was active.
The same measure, in the same setting: with `C=CCSc1nc2ccccc2n1S(=O)(=O)c1ccc(Cl)cc1` the entry was “active”; with `COc1ccccc1NC(=O)c1c(C)oc2c1CCCC2`, “active”; with `COC1(C)CC2C(CC1OC(=O)c1cc([N+](=O)[O-])cc([N+](=O)[O-])c1)C2(C)C` (configuration not stated), “active”.

Still in this experiment, the particulars now being: EP2-expressing cells, PGE2 EC50 shift by compound; measured here: PGE2 EC50 at 6.7 uM compound.
In the case of `NC(=O)COc1ccc(C23CC4CC(CC(C4)C2)C3)cc1`, the PGE2 EC50 with compound amounted to 2.56 nM.
For the compound `Cc1nc2ccccc2nc1SCC(=O)N1CCC(C)CC1`, the PGE2 EC50 with compound is 2.77 nM.
For the compound `Cc1noc(C)c1CSc1nc2ccccc2c(=O)n1-c1ccc(Cl)cc1`, the PGE2 EC50 with compound was determined as 0.83 nM.
Regarding `CCc1ccccc1NC(=S)N(Cc1ccco1)C(C)c1cccs1` (configuration not stated), the PGE2 EC50 with compound stood at 0.9 nM.
In the case of `CCCCOc1ccccc1NC(=O)c1scc2c1OCCO2`, the PGE2 EC50 with compound came to 0.32 nM.
As to `COc1ccc(Cc2n[nH]c(=S)n2Cc2ccccc2)cc1Cl`, the PGE2 EC50 with compound turned out to be 1.41 nM.
With `CN(c1ccccc1)c1nc(N2CCCC2)nc(-n2ccnc2)n1`, the PGE2 EC50 with compound was 0.79 nM.
On to `N#CCSc1nc2sc3c(c2c(=O)n1C1CCCCC1)CCCC3`, for which the PGE2 EC50 with compound amounted to 0.76 nM.
Take `CC1(C)Cc2nc3nc(SCC(=O)Nc4ccccc4)nc(N)c3cc2CO1`: the PGE2 EC50 with compound turned out to be 1.4 nM.
For `Cc1ccc(C(=O)c2cnc3ccccc3c2-c2ccccc2)cc1`, the PGE2 EC50 with compound turned out to be 0.64 nM.
Same read-out and setting: with `CCOC(=O)C1=C(CN2CCc3ccccc32)NC(=O)NC1c1ccc(Cl)cc1` (configuration not stated) the figure was 1.21 nM; with `CCOC(=O)c1c(C=O)c(C)n(Cc2ccc(C)cc2)c1C`, 1.31 nM.
`O=C(CSc1nnc(Cc2ccccc2)n1Cc1ccco1)NC12CC3CC(CC(C3)C1)C2`: the PGE2 EC50 with compound amounted to 1.73 nM.
On the same count and under the same terms, the same measure for `Cc1ccc(C)n1-c1sc2c(c1C#N)CCCC2`: 2.65 nM; for `Cc1nccc2[nH]c(=O)c(C(=O)NC3CCCCC3C)cc12` (configuration not stated): 1.44 nM.
Consider `O=C(O)CSc1cc(-c2ccccc2)nc2ccccc12`, for which the PGE2 EC50 with compound was found to be 2.55 nM.
For `Nc1nc(Cc2ccccc2)nc(Cc2ccccc2)c1-c1ccccc1`, the PGE2 EC50 with compound is 0.79 nM.
Still for that read-out and setting: with `COC(=O)c1ccc(CSc2ncnc3c2oc2ccccc23)o1` the figure was 2.45 nM; with `O=C(COc1ccccc1)Nc1ccccc1N1CCN(c2ccccc2)CC1`, 1.48 nM; with `Nc1cccc(OCc2nc(N)nc(N)c2-c2ccc(Cl)cc2)c1`, 1.24 nM.
Regarding `CCOC(=O)CCCCCCCCCCCCC1C=CCC1` (configuration not stated), the PGE2 EC50 with compound came out at 0.96 nM.
In the case of `O=c1cc(N2CCCCC2)c(-c2ccccc2)nn1Cc1ccccc1Cl`, the PGE2 EC50 with compound stood at 0.65 nM.
For the compound `CC(=O)CSc1ncnc2sc3c(c12)CCC(C)C3` (configuration not stated), the PGE2 EC50 with compound is 1.75 nM.
Still for that read-out and setting: the same measure for `CCc1nc(N2CCC(C)CC2)c2oc3ccccc3c2n1`: 1.23 nM; for `COc1ccc(-c2nc3c(c(=O)[nH]c(=O)n3Cc3ccccc3)n2Cc2ccccc2)cc1`: 0.55 nM; for `CC(C)c1ccc(OCC(=O)NC(=S)Nc2ccc3c4c(cccc24)CC3)cc1`: 3.13 nM.
Same read-out and setting: the same measure for `CCOP(=O)(c1ccccc1)c1nc(-c2ccccc2C)oc1N1CCCCC1` (configuration not stated): 0.69 nM; for `Cc1cc(Nc2ccc(Br)cc2)n2nc(C)nc2n1`: 1.06 nM.
As to `c1ccc(Cc2nnc(Sc3ccccc3)c3ccccc23)cc1`, the PGE2 EC50 with compound stood at 2.76 nM.
`CCN(CCO)c1ncnc2c1sc1nc(C(C)C)c3c(c12)CC(C)(C)OC3`: the PGE2 EC50 with compound worked out at 0.69 nM.
On the same count and under the same terms, the same measure for `CC1(C)CC2CC(C)(CN2c2ncnc3ccc(Br)cc23)C1` (configuration not stated): 1.52 nM; for `O=c1c2ccccc2c2ccccc2c(=O)n1Cc1ccco1`: 1.09 nM.
On the same count and under the same terms, the same measure for `CC1C(c2ccccc2)N(C)C(c2ccccc2)C(C)C1(O)C#Cc1ccccc1` (configuration not stated): 0.32 nM; for `CSc1ccccc1NC(=O)COc1ccc(Cl)cc1C`: 1.06 nM; for `C[C@H](N)[C@H](O)c1ccc(O)c(O)c1`: 1.32 nM.
`CCOC(=O)Cc1csc(NC(=O)c2cc(=O)c3ccccc3o2)n1`: the PGE2 EC50 with compound amounted to 1.36 nM.
The same measure, in the same setting: the same measure for `CCOC(=O)c1cc(CC)sc1NC(=O)c1cc(OC)c(OC)c(OC)c1`: 0.82 nM.
Consider `Cc1cccc(-c2csc(N)c2C(=O)OC(C)C)c1`, for which the PGE2 EC50 with compound is 0.97 nM.
On to `CCOc1ccc(N(Cc2ccc(OC)cc2)C(=O)c2ccco2)cc1`, for which the PGE2 EC50 with compound worked out at 1.12 nM.
Same read-out and setting: with `CCOC(=O)c1c(C=O)c(C)n(Cc2ccccc2Cl)c1C` the figure was 1.34 nM.
Same read-out and setting: the same measure for `N#Cc1c(-c2cccs2)nc(SCc2ccc(Cl)cc2)[nH]c1=O`: 2.85 nM; for `C=CCSc1nc2ccccc2n1S(=O)(=O)c1ccc(Cl)cc1`: 0.85 nM; for `CSc1nc(Oc2ccc(F)cc2)c2ccccc2n1`: 0.61 nM.
Take `O=c1n(Cc2ccccc2F)c2ccccc2n1Cc1ccccc1F`: the PGE2 EC50 with compound amounted to 1.01 nM.
Turning to `Cc1cccc(OCc2n[nH]c(=S)n2Cc2ccccc2)c1`, the PGE2 EC50 with compound was found to be 1.31 nM.
On the same count and under the same terms, with `O=C(c1cc(-c2ccccn2)nc2ccc(Br)cc12)N1CCc2ccccc2C1` the figure was 1.06 nM; with `COC(=O)c1[nH]c2ccccc2c1NS(=O)(=O)c1ccc(F)c(C)c1`, 0.88 nM.
Take `CCOC(=O)c1ccccc1NC(=O)COc1ccccc1`: the PGE2 EC50 with compound stood at 1.04 nM.
On the same count and under the same terms, with `C#CCn1c(S(=O)(=O)Cc2ccccc2Cl)nc(-c2ccccc2)c1-c1ccccc1` the figure was 2.66 nM.
The same measure, in the same setting: with `Cc1ccc(/C=N/N(Cc2ccccc2)c2ccccc2)o1` the figure was 0.92 nM; with `COc1ccccc1NC(=O)c1c(C)oc2c1CCCC2`, 1.19 nM; with `N#Cc1c(NC(=O)CSc2n[nH]c(Cc3ccccc3)n2)oc(-c2ccccc2)c1-c1ccccc1`, 1.4 nM.
On to `CC(C)CCn1c(-c2nonc2N)nc2ccccc21`, for which the PGE2 EC50 with compound turned out to be 1.49 nM.
For the compound `CCOC(=O)c1sc(NC(=O)CCN2CC(C)OC(C)C2)c(C(=O)OCC)c1C` (configuration not stated), the PGE2 EC50 with compound worked out at 1.11 nM.
In the case of `Cc1cc(OCC(=O)OC(C)C)c2c3c(c(=O)oc2c1)CCCC3`, the PGE2 EC50 with compound was found to be 0.81 nM.
As to `Cc1ccc2[nH]c3c(=S)nc[nH]c3c2c1`, the PGE2 EC50 with compound was found to be 2.83 nM.
Same read-out and setting: with `Cc1ccc(-c2nn(-c3ccccc3)cc2CN(Cc2ccccc2)C(=O)c2ccco2)o1` the figure was 0.7 nM.
Consider `CC1=CC(C)(C)N(S(=O)(=O)c2ccc(F)cc2)c2ccc(C)cc21`, for which the PGE2 EC50 with compound stood at 0.8 nM.
As for `Cc1ccc(-c2cccc(C(=O)NCc3ccccc3)n2)c2ccccc12`, the PGE2 EC50 with compound was found to be 0.32 nM.
Still for that read-out and setting: the same measure for `Cc1cccc(Cn2c(Cc3ccccc3)nc3ccccc32)c1`: 0.71 nM; for `COC1(C)CC2C(CC1OC(=O)c1cc([N+](=O)[O-])cc([N+](=O)[O-])c1)C2(C)C` (configuration not stated): 2.79 nM.
Same read-out and setting: the same measure for `COC(=O)c1c(NC(=S)NN2CCOCC2)sc2c1CCCC2`: 0.9 nM.
Same read-out and setting: with `C=CCNC(=S)NNc1nc(Nc2ccccc2)nc(N2CCCCC2)n1` the figure was 1.42 nM; with `Cc1nnc(SCC(=O)NC2CCCCC2)n1C1CCCCC1`, 2.7 nM; with `CC(NC(c1ccccc1)c1ccccc1)C(=O)N1CCCc2ccccc21` (configuration not stated), 1.25 nM.
As to `CCN(CC)c1ccc(/C=C2\C(=O)c3ccc(C(=O)O)cc3C2=O)cc1`, the PGE2 EC50 with compound is 1.04 nM.
As for `CCOC(=O)C1CCN(c2c(C(=O)c3ccccc3)cnc3ccc(CC)cc23)CC1`, the PGE2 EC50 with compound is 0.91 nM.

For the origin of these results see PubChem BioAssay AID1421 (Emory University Molecular Libraries Screening Center, 2008).
